Patent US7662977B2, “PI-3 kinase inhibitor prodrugs” (Semafore Pharmaceuticals, Inc., priority 2003, dated 2010)
Peptide text beside a SMILES is read from it. * marks the point of attachment. X1 = O=C(CCC(=O)*)OC[N+]1(c2cc(=O)c3cccc(-c4ccccc4)c3o2)CCOCC1

What was measured:
[1] = test system: nude mice; assay: Acute toxicity after intravenous injection in nude mice; type: in vivo
Method: (§1) In order to prepare the acetoxymethyl quarternary salt of Compound 1101, 1.0 g Compound 1101 was dissolved in 10 ml dry acetonitrile in a glass vial, and 1.0 g bromomethyl acetate (2.0 equivalents) was added and allowed to stir at room temperature overnight. LCMS indicated presence of starting material, so the reaction was heated at 65° C. in an oil bath for 8 hours. The mother liquors were decanted from the solid and the solids washed with a small amount of cold acetonitrile. The solid was dried in a vacuum dessicator overnight. The product was identified as 264 mg of a white solid with a retention time of 2.204 minutes, M+=380 which was 97% pure. […] Additionally, 250 uL of this 32.5 mM solution of compound A040-70 was administered to a nude mouse by oral gavage.
Intravenously administered Compound 1 was determined to have a 100% mortality within 5 minutes of administration in three nude mice at a dose level of 16 mg/kg.

[2] = test system: J774 macrophages; assay: Phagocytosis of sensitized sRBCs in J774 macrophages (class I PI-3 kinase-dependent pathway); type: cell-based; settings: for phagocytic index (PGI): 5 μM
Method: The columns indicate phagocytic index or percentage of cells positive for phagocytic response. The phagocytic index is the number of sRBC's (sheep red blood cells) found per 100 J774 cells and the % of phagocytic cells is the % of J774 cells that have phagocytized at least 1 sRBC. The error bars represent standard deviation of mean.
The bioactivity of LY294002 (Compound 1) was determined by assaying phagocytosis in J774 macrophages, which is a class I PI-3 kinase-dependent pathway. Briefly, […] DMSO control for 1 h in DMEM with 10% FCS and then sensitized sRBCs (sheep red blood cells) was added at a target to effector ratio equal to 100:[…] Cells were exposed to hypotonic shock to remove red blood cells and phagocytosis was determined by measurement of hemoglobin concentration in the cell lysates. […]

[3] = test system: p53 transcriptional activity; assay: p53 luciferase (transcriptional activity) in HBECs; type: cell-based; settings: for induction of p53 luciferase activity versus control: HBECs, Compound 1: 6 hour exposure
Excerpt: This experiment tested the effect of PI 3 kinase inhibitors (Compound 1 and the targeted prodrug version of Compound 1; Compound 1126) on the induction of p53 luciferase activity. The transfection procedure was similar to that described in the literature to monitor p53 transcription.

[4] = test system: EDC-CBF1 endothelial cells; assay: Tube formation of EDC-CBF1 endothelial cells on Matrigel; type: cell-based; settings: overnight
Method: In this example it was determined to what degree PI 3 kinase inhibitors (including targeted PI3 kinase inhibitor prodrugs) could inhibit tube formation. Matrigel was plated into 12-well plate wells and solidified in 37° C. for 2 hours. 1×10^5 EDC-CBF1 endothelial cells were then put on the top of the Matrigel layer in the presence of PBS, RADfV (cyclic negative control peptide), RGDfV (cyclic positive control peptide), RADS (linear negative control peptide), compound 1, or Compound 1126 at 20° M concentration overnight. Pictures were then taken using a microscope.

[5] = test system: J774 macrophages; assay: Phagocytosis of sensitized sRBCs in J774 macrophages (class I PI-3 kinase-dependent pathway); type: cell-based
[6] = Reversibility of prodrugs to compound 1 in aqueous phosphate buffer (LC-MS over time); settings: for half-life: phosphate buffer
Method: Prodrug Compounds were dissolved in water or in DMSO (if not freely soluble in water) and then diluted at least 10-fold into 50 mM phosphate buffer at pH=7.4 or pH=4.8 and allowed to stand at room temperature. The final concentration of the compounds in aqueous environment ranged from 50 to 500 uMolar.

[7] = test system: human non-small cell lung cancer cells: H1299; assay: H1299 non-small cell lung cancer xenograft in nude mice; type: in vivo
Method: Male nude mice of 4-6 weeks in age weighing around 30 grams were inoculated subcutaneously in the right flank with 5 million tumor cells (human non-small cell lung cancer cells: H1299) on day 0. After 14 days of allowing the tumors to grow the animals were divided into 3 groups of 5 animals each. One group received vehicle control alone. One group received twice-per-day tail vein injections (i.v) of 50 uL volume of 24.4 millimolar solution of Compound 1126 in phosphate buffered saline corresponding to 25 mg/kg/day dosing level of the active component of the prodrug (i.e. compound 1). The last group received twice-per-day tail vein injections (i.v) of 50 uL volume of 4.9 millimolar solution of Compound 1126 in phosphate buffered saline corresponding to 5 mg/kg/day dosing level of the active component of the prodrug (compound 1). The tumors were measured every three days using calipers to determine the tumor volume and the animals weights were recorded when the animals were sacrificed on day 27. The results are shown in Table 7 and indicate strong tumor volume reduction versus control for both dose levels at the first datapoint only 3 days after treatment (Day 17) and continuing through to the end of the study: […]

[8] = test system: human brain cancer cell line (U87MG); assay: U87MG brain cancer xenograft model; type: in vivo; settings: 25 mg/kg/day; for % Tumor Volume Reduction compared to vehicle only control: treatment from day 7, U87MG xenograft
Method: Male nude mice of 4-6 weeks in age weighing around 30 grams were inoculated subcutaneously in the right flank with 5 million tumor cells (human non-small cell lung cancer cells: H1299) on day 0. After 14 days of allowing the tumors to grow the animals were divided into 3 groups of 5 animals each. One group received vehicle control alone. One group received twice-per-day tail vein injections (i.v) of 50 uL volume of 24.4 millimolar solution of Compound 1126 in phosphate buffered saline corresponding to 25 mg/kg/day dosing level of the active component of the prodrug (i.e. compound 1). The last group received twice-per-day tail vein injections (i.v) of 50 uL volume of 4.9 millimolar solution of Compound 1126 in phosphate buffered saline corresponding to 5 mg/kg/day dosing level of the active component of the prodrug (compound 1). The tumors were measured every three days using calipers to determine the tumor volume and the animals weights were recorded when the animals were sacrificed on day 27. The results are shown in Table 7 and indicate strong tumor volume reduction versus control for both dose levels at the first datapoint only 3 days after treatment (Day 17) and continuing through to the end of the study:
An animal study was run as described in Example above except using a human brain cancer cell line (U87MG) and with treatment starting on day 7 such that the first tumor volume measurement occurred on day 10.

[9] = Water solubility / solution in phosphate buffered saline; type: physicochemical
Method: as §1

[10] = portion not accumulated in the skeleton; cited from earlier work
[11] = 20 uM, exposure-limited: 20 minute exposure then removal of test solution, solvent blank 163

## 2-(4-morpholinyl)-8-phenyl-4H-1-benzopyran-4-one [Compound 1]
[1]; mice, injection of 1.04 uMoles
  observed effects after injection: immediate death in three out of three mice

## O=c1cc(N2CCOCC2)oc2c(-c3ccccc3)cccc12 [Compound 1, 2-(4-morpholinyl)-8-phenyl-4H-1-benzopyran-4-one]
[2]; LY294002 at 10, 1 and 0.1 μM for 1 h, J774 cells
  blocking of phagocytosis: significantly blocked phagocytosis at all concentrations in a dose dependent manner
[3]
  induction of p53 luciferase activity versus control: more than two fold higher
[4]
  tube formation compared with PBS control: significantly less
[5]; [11]
  phagocytic index (PGI): 190
[1]; nude, mouse, in vivo, iv, 16 mg/kg, 5 min
  mortality: 100%

## CC(C)(C)OC(=O)CCC(=O)OC[N+]1(c2cc(=O)c3cccc(-c4ccccc4)c3o2)CCOCC1 [Compound 1110]
[6]; pH 4.8
  half-life: > 120 h
[6]; pH 7.4
  half-life: ~10 h

## N=C(N)NCCCC(NC(=O)CCC(=O)OC[N+]1(c2cc(=O)c3cccc(-c4ccccc4)c3o2)CCOCC1)C(=O)NCC(=O)NC(CC(=O)O)C(=O)NC(CO)C(=O)O (centres unmarked) [Compound 1126] (X1-RGDS-OH; configuration not given here)
[7]; 5 mg/kg/day i.v. twice per day from day 14, H1299, Day 17
  % Tumor Volume Reduction compared to vehicle only control: 29%
[7]; 5 mg/kg/day i.v. twice per day from day 14, H1299, Day 20
  % Tumor Volume Reduction compared to vehicle only control: 50%
[7]; 5 mg/kg/day i.v. twice per day from day 14, H1299, Day 24
  % Tumor Volume Reduction compared to vehicle only control: 44%
[7]; 5 mg/kg/day i.v. twice per day from day 14, H1299, Day 27
  % Tumor Volume Reduction compared to vehicle only control: 35%
[7]; 25 mg/kg/day i.v. twice per day from day 14, H1299, Day 17
  % Tumor Volume Reduction compared to vehicle only control: 35%
[7]; 25 mg/kg/day i.v. twice per day from day 14, H1299, Day 20
  % Tumor Volume Reduction compared to vehicle only control: 66%
[7]; 25 mg/kg/day i.v. twice per day from day 14, H1299, Day 24
  % Tumor Volume Reduction compared to vehicle only control: 68%
[7]; 25 mg/kg/day i.v. twice per day from day 14, H1299, Day 27
  % Tumor Volume Reduction compared to vehicle only control: 68%
[7]; day 27, 25 and 5 mg/kg/day i.v., nude mice
  animal body weights, control group versus the two treatment groups: lack of statistically significant difference
[7]; two week administration period, 25 and 5 mg/kg/day i.v., nude mice
  tolerability of twice per day doses: well tolerated
[2]; aqueous pH=7 incubation time 2 hours
  phagocytic index (PGI): 88
[2]; aqueous pH=7 incubation time 5 hours
  phagocytic index (PGI): 78
[2]; aqueous pH=7 incubation time 10 hours
  phagocytic index (PGI): 37
[2]; time zero with no preincubation
  phagocytic index (PGI): 140
[3]
  induction of p53 luciferase activity versus control: ~3 fold
[4]
  tube formation compared with PBS control: significantly less
[5]; 1 uM, 20 minute incubation, removal, then 2 hours for phagocytosis, 0 uM gave 213
  phagocytic index (PGI): 206
[5]; 3 uM, 20 minute incubation, removal, then 2 hours for phagocytosis, 0 uM gave 213
  phagocytic index (PGI): 143
[5]; 10 uM, 20 minute incubation, removal, then 2 hours for phagocytosis, 0 uM gave 213
  phagocytic index (PGI): 33
[5]; [11]
  phagocytic index (PGI): 50
[1]; intravenous, 22 mg/kg, three nude mice, after 1 hour of observation
  mortality: 0%
[8]
  toxicity in U87MG xenograft study: desirable lack of toxicity
[8]; Day 10
  % Tumor Volume Reduction compared to vehicle only control: 20.2%
[8]; Day 14
  % Tumor Volume Reduction compared to vehicle only control: 52.6%
[8]; Day 17
  % Tumor Volume Reduction compared to vehicle only control: 38.5%
[8]; Day 21
  % Tumor Volume Reduction compared to vehicle only control: 35.2%

## CN1CC(=O)N(c2ccc(C(=O)OC[N+]3(c4cc(=O)c5cccc(-c6ccccc6)c5o4)CCOCC3)cc2)C1=S [Compound A017-59]
[6]; phosphate buffer at pH=7.4, over a 17 hour period
  conversion back to compound 1: significant amounts of this compound converted back to compound 1

## COCCOCCOCCOCCC(=O)OC[N+]1(c2cc(=O)c3cccc(-c4ccccc4)c3o2)CCOCC1 [Compound A027-85]
[6]; pH 7.4
  half-life: ~3 h

## CC(=O)OC[N+]1(c2cc(=O)c3cccc(-c4ccccc4)c3o2)CCOCC1 [Compound A040-70]
[6]; pH 7.4
  half-life: ~10 h
[9]
  water solubility: very high water solubility
[9]; 27 mg in 1.865 mL PBS, resulting pH around 4
  concentration of solution prepared in phosphate buffered saline: 32.5 millimolar

## O=C(CCC(=O)OC[N+]1(c2cc(=O)c3cccc(-c4ccccc4)c3o2)CCOCC1)NCc1ccc(C(=O)NCCN(CCN(CP(=O)(O)O)CP(=O)(O)O)CCN(CP(=O)(O)O)CP(=O)(O)O)cc1 [Compound A046-89P]
[6]; after 24 hours standing at pH=7.0, phosphate buffer
  conversion back to compound 1: converted completely back to compound 1

## O=P([O-])(O)CN(CCN(CP(=O)([O-])O)CP(=O)(O)O)CP(=O)([O-])O.[153Sm+3] [^153Sm-EDTMP]
[10]
  time after administration at which excretion is almost complete: ≤ 6 h

## Cc1ccc(C(=O)Cn2c3c(sc2=N)CCCC3)cc1 [pifithrin alpha]
[3]; 20 uM concentration
  effect on induction of p53 function by Compound 1 and Compound 1126: abrogated

## arg-gly-asp-ser [RGDS, reference compound]
[4]
  tube formation compared with PBS control: not much difference
[5]; [11]
  phagocytic index (PGI): 170
